{"source": "paper PMC5900025", "about": "“Naphthoquinone Derivatives as Scaffold to Develop New Drugs for Tuberculosis Treatment” (Frontiers in Microbiology, 2018)", "key": {"[1]": {"tested_on": "M. tuberculosis mono-resistant to RIF (RMPR, ATCC 35838), rpoB H526Y", "assay_type": "cell-based, Mycobacterium tuberculosis"}, "[2]": {"tested_on": "M. tuberculosis mono-resistant to INH (INHR, ATCC 35822), katG S315T", "assay_type": "cell-based, Mycobacterium tuberculosis"}}, "data": [{"smiles": "O=C1C(Cl)=C(Cl)C(=O)c2ccccc21", "note": "[Compound 1, 2,3-Dichloronaphthalene-1,4-dione]", "values": [{"measurement": "MIC", "setting": "[1]", "value": 110.6, "unit": "µM"}, {"measurement": "MIC", "setting": "[2]", "value": 110.6, "unit": "µM"}]}, {"smiles": "CC1(C)CCC2=C(O1)C(=O)c1ccccc1C2=O", "note": "[Compound 2, 2,2-Dimethyl-3,4-dihydro-2H-benzo[g]chromene-5, 10-dione]", "values": [{"measurement": "MIC", "setting": "[1]", "value": 206.6, "unit": "µM"}, {"measurement": "MIC", "setting": "[2]", "value": 206.6, "unit": "µM"}]}, {"smiles": "CC1(C)CC2=C(O1)C(=O)c1ccccc1C2=O", "note": "[Compound 3, 2,2-Dimethyl-2,3-dihydronaphtho[2,3-b]furan-4,9-dione]", "values": [{"measurement": "MIC", "setting": "[1]", "value": 54.8, "unit": "µM"}, {"measurement": "MIC", "setting": "[2]", "value": 54.8, "unit": "µM"}]}, {"smiles": "C=CCOC1=CC(=O)c2ccccc2C1=O", "note": "[Compound 4, 2-(Allyloxy)naphthalene-1,4-dione]", "values": [{"measurement": "MIC", "setting": "[1]", "value": 234, "unit": "µM"}, {"measurement": "MIC", "setting": "[2]", "value": 234, "unit": "µM"}]}, {"smiles": "NC1=CC(=O)c2ccccc2C1=O", "note": "[Compound 5, 2-Aminonaphthalene-1,4-dione]", "values": [{"measurement": "MIC", "setting": "[1]", "value": 36.1, "unit": "µM"}, {"measurement": "MIC", "setting": "[2]", "value": 36.1, "unit": "µM"}]}, {"smiles": "O=C1C=C(Nc2ccccc2)C(=O)c2ccccc21", "note": "[Compound 6, 2-(Phenylamino)naphthalene-1,4-dione]", "values": [{"measurement": "MIC", "setting": "[1]", "value": 12.5, "unit": "µM"}, {"measurement": "MIC", "setting": "[2]", "value": 100.4, "unit": "µM"}]}, {"smiles": "NNC(=O)c1ccncc1", "note": "[INH, isoniazid, reference compound]", "values": [{"measurement": "MIC", "setting": "[1]", "value": "≤0.219", "unit": "µM"}, {"measurement": "MIC", "setting": "[2]", "value": 14.6, "unit": "µM"}]}, {"smiles": "CO[C@H]1/C=C/O[C@@]2(C)Oc3c(C)c(O)c4c(O)c(c(/C=N/N5CCN(C)CC5)c(O)c4c3C2=O)NC(=O)/C(C)=C\\C=C\\[C@H](C)[C@H](O)[C@@H](C)[C@@H](O)[C@@H](C)[C@H](OC(C)=O)[C@@H]1C", "note": "[RIF, rifampicin, reference compound]", "values": [{"measurement": "MIC", "setting": "[1]", "value": 622.2, "unit": "µM"}, {"measurement": "MIC", "setting": "[2]", "value": 0.304, "unit": "µM"}]}]}
